Test results as given in patent publication US7318939B2 (Vita Green Health Products Co., Ltd., priority 2006, dated 2008).
“And” between values parts separate entries of the source, which are not always exact repeats. Equal values may be shown once. Where a name gives a salt, the structure may show the parent alone.

Test system: male CD1 mice
Test: Anti-depressant activity: forced swimming test in mice
Format: in vivo
Settings: 30 mg/kg ip
Text: A depressed state can be induced in mice by forcing them to swim in a narrow cylinder from which they cannot escape. After an initial period of vigorous activity, the mice adopt a characteristic immobile posture which is readily identifiable.
Fifty-five male CD1 mice weighing 20-25 g at the start of the study were obtained from Charles River Laboratories Espafia (Barcelona, Spain). These mice underwent a prior acclimatization period of 6 days before the start of the experimental work, during which they underwent a veterinary examination in order to assure their good health.
The mice were allotted at random to five groups, each consisting of ten animals. The rest of the animals (one per group) were kept as reserve (these animals are not taken into account in the final results). The experimental design is described in the Table 7 below.
The mice began a fasting period of approximately 6 hours before starting the treatments. At the beginning of the test, the corresponding treatments were administrated by the assigned route at a volume of 10 mL/kg. The test item was administrated at three dose levels of 100, 200 and 300 mg/kg by oral route (gastric gavage or po). The reference item was administrated at the dose level of 30 mg/kg by intraperitoneal route or ip. The Control group only received the vehicle (water for injection) orally (po) by gastric gavage.
Six minutes after the administration of the treatments, each mouse was dropped into the cylinder containing water (forcing it to swim) and left there for 6 minutes, the testing time. The time of immobility of the animal was recorded. A mouse was considered immobile when it ceased struggling and remained floating motionless in the water making only those movements necessary to keep its head above water. […] Finally, once the test was over, the animals were sacrificed by cervical dislocation.

CN(C)CCCN1c2ccccc2CCc2ccccc21 [Imipramine HCl, Imipramine hydrochloride]
% decrease versus Control (time of immobility): 56.2% | Time of immobility (s) individual values (animal no. 1-10, hydrochloride): 90 s and 140 s and 64 s and 51 s and 3 s and 91 s and 37 s | Time of immobility (s), mean (last 4 min of 6 min test, Mean ± SEM, n = 10, hydrochloride): 80.8 ± 13.14 s and 80.8 s
